# Results: patent US4731451A, “N-((2-oxo-3(2H)benzothiazolyl)methyl)-2-chloroacetanilides” (Monsanto Company, priority 1980, dated 1988)
# Columns and labels:
# Type in all cases: in vivo
# Lambsquarters [1] = experiment: Pre-emergent herbicidal activity (Table III)
# Procedure, shortened: (§1)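 Seeds or propagules were sown on compacted topsoil in pans and covered with a soil layer premixed with a known amount of active ingredient (solvent or wettable-powder suspension). Pans were kept in a greenhouse with sub-irrigation, and injury was scored on a fixed percent-injury scale about 2-3 weeks later.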
# Downy Brome [2] = experiment: Pre-emergent herbicidal activity (Table III)
# Procedure, shortened: as §1
# Barnyardgrass [3] = experiment: Pre-emergent herbicidal activity (Table III)
# Procedure, shortened: as §1
# Crabgrass = experiment: Pre-emergent herbicidal activity (Table III)
# Procedure, shortened: as §1
# Morningglory [4] = experiment: Pre-emergent herbicidal activity (Table III)
# Procedure, shortened: as §1
# Wild Buckwheat = experiment: Pre-emergent herbicidal activity (Table III)
# Procedure, shortened: as §1
# Wheat = experiment: Pre-emergent herbicidal activity (Table III)
# Procedure, shortened: as §1
# Cocklebur [5] = experiment: Pre-emergent herbicidal activity (Table III)
# Procedure, shortened: as §1
# Smartweed [6] = experiment: Pre-emergent herbicidal activity (Table III)
# Procedure, shortened: as §1
# Hemp Sesbania = experiment: Pre-emergent herbicidal activity (Table III)
# Procedure, shortened: as §1
# Velvetleaf [7] = experiment: Pre-emergent herbicidal activity (Table III)
# Procedure, shortened: as §1
# Panicum = experiment: Pre-emergent herbicidal activity (Table III)
# Procedure, shortened: as §1
# Sorghum = experiment: Pre-emergent herbicidal activity (Table III)
# Procedure, shortened: as §1
# Sugarbeet = experiment: Pre-emergent herbicidal activity (Table III)
# Procedure, shortened: as §1
# Soybean = experiment: Pre-emergent herbicidal activity (Table III)
# Procedure, shortened: as §1
# Rice = experiment: Pre-emergent herbicidal activity (Table III)
# Procedure, shortened: as §1
# Lambsquarters [8] = experiment: Pre-emergent herbicidal activity (Table II); conditions: 2-3 weeks
# Procedure, shortened: (§2)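 Seeds or vegetative propagules were sown on compacted top soil in pans and covered with a soil layer mixed with a known amount of active ingredient, applied in solvent or as wettable powder suspension. Pans were kept on a greenhouse bench, watered from below, and injury rated on a fixed scale about 2-3 weeks later.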
# Downy Brome [9] = experiment: Pre-emergent herbicidal activity (Table II); conditions: 2-3 weeks
# Procedure, shortened: as §2
# Canada Thistle = experiment: Pre-emergent herbicidal activity (Table II); conditions: 2-3 weeks
# Procedure, shortened: as §2
# Quackgrass = experiment: Pre-emergent herbicidal activity (Table II); conditions: 2-3 weeks
# Procedure, shortened: as §2
# Barnyardgrass [10] = experiment: Pre-emergent herbicidal activity (Table II); conditions: 2-3 weeks
# Procedure, shortened: as §2
# Morningglory [11] = experiment: Pre-emergent herbicidal activity (Table II); conditions: 2-3 weeks
# Procedure, shortened: as §2
# Cocklebur [12] = experiment: Pre-emergent herbicidal activity (Table II); conditions: 2-3 weeks
# Procedure, shortened: as §2
# Yellow Nutsedge = experiment: Pre-emergent herbicidal activity (Table II); conditions: 2-3 weeks
# Procedure, shortened: as §2
# Smartweed [13] = experiment: Pre-emergent herbicidal activity (Table II); conditions: 2-3 weeks
# Procedure, shortened: as §2
# Velvetleaf [14] = experiment: Pre-emergent herbicidal activity (Table II); conditions: 2-3 weeks
# Procedure, shortened: as §2
# Johnsongrass = experiment: Pre-emergent herbicidal activity (Table II); conditions: 2-3 weeks
# Procedure, shortened: as §2
# Note: ranges in brackets are in %.
structure (smiles),measurement,setting,value
"CC1=C(N(Cn2c(=O)sc3ccccc32)C(=O)CCl)CCCC1 [Example 10, N--[(2-oxo-3(2H)--benzothiazolyl)methyl]-N--(2-methyl-1-cyclohexen-1-yl)-2-chloro-amide]",Herbicidal rating,Lambsquarters [1]; 0.056 kg/ha,1 (25-49)
same,Herbicidal rating,Lambsquarters [1]; 0.28 kg/ha,0 (0-24)
same,Herbicidal rating,Lambsquarters [1]; 1.12 kg/ha,1 (25-49)
same,Herbicidal rating,Lambsquarters [1]; 5.6 kg/ha,3 (75-100)
same,Herbicidal rating,Downy Brome [2]; 0.056 kg/ha,0 (0-24)
same,Herbicidal rating,Downy Brome [2]; 0.28 kg/ha,0 (0-24)
same,Herbicidal rating,Downy Brome [2]; 1.12 kg/ha,0 (0-24)
same,Herbicidal rating,Downy Brome [2]; 5.6 kg/ha,2 (50-74)
same,Herbicidal rating,Barnyardgrass [3]; 0.056 kg/ha,3 (75-100)
same,Herbicidal rating,Barnyardgrass [3]; 0.28 kg/ha,3 (75-100)
same,Herbicidal rating,Barnyardgrass [3]; 1.12 kg/ha,2 (50-74)
same,Herbicidal rating,Barnyardgrass [3]; 5.6 kg/ha,3 (75-100)
same,Herbicidal rating,Crabgrass; 0.056 kg/ha,3 (75-100)
same,Herbicidal rating,Crabgrass; 0.28 kg/ha,3 (75-100)
same,Herbicidal rating,Crabgrass; 1.12 kg/ha,3 (75-100)
same,Herbicidal rating,Crabgrass; 5.6 kg/ha,3 (75-100)
same,Herbicidal rating,Morningglory [4]; 0.056 kg/ha,0 (0-24)
same,Herbicidal rating,Morningglory [4]; 0.28 kg/ha,0 (0-24)
same,Herbicidal rating,Morningglory [4]; 1.12 kg/ha,0 (0-24)
same,Herbicidal rating,Morningglory [4]; 5.6 kg/ha,0 (0-24)
same,Herbicidal rating,Wild Buckwheat; 0.056 kg/ha,0 (0-24)
same,Herbicidal rating,Wild Buckwheat; 0.28 kg/ha,0 (0-24)
same,Herbicidal rating,Wild Buckwheat; 1.12 kg/ha,0 (0-24)
same,Herbicidal rating,Wild Buckwheat; 5.6 kg/ha,0 (0-24)
same,Herbicidal rating,Wheat; 0.056 kg/ha,0 (0-24)
same,Herbicidal rating,Wheat; 0.28 kg/ha,0 (0-24)
same,Herbicidal rating,Wheat; 1.12 kg/ha,0 (0-24)
same,Herbicidal rating,Wheat; 5.6 kg/ha,1 (25-49)
same,Herbicidal rating,Cocklebur [5]; 0.056 kg/ha,0 (0-24)
same,Herbicidal rating,Cocklebur [5]; 0.28 kg/ha,0 (0-24)
same,Herbicidal rating,Cocklebur [5]; 1.12 kg/ha,0 (0-24)
same,Herbicidal rating,Cocklebur [5]; 5.6 kg/ha,0 (0-24)
same,Herbicidal rating,Smartweed [6]; 0.056 kg/ha,0 (0-24)
same,Herbicidal rating,Smartweed [6]; 0.28 kg/ha,0 (0-24)
same,Herbicidal rating,Smartweed [6]; 1.12 kg/ha,1 (25-49)
same,Herbicidal rating,Smartweed [6]; 5.6 kg/ha,2 (50-74)
same,Herbicidal rating,Hemp Sesbania; 0.056 kg/ha,0 (0-24)
same,Herbicidal rating,Hemp Sesbania; 0.28 kg/ha,0 (0-24)
same,Herbicidal rating,Hemp Sesbania; 1.12 kg/ha,0 (0-24)
same,Herbicidal rating,Hemp Sesbania; 5.6 kg/ha,0 (0-24)
same,Herbicidal rating,Velvetleaf [7]; 0.056 kg/ha,0 (0-24)
same,Herbicidal rating,Velvetleaf [7]; 0.28 kg/ha,0 (0-24)
same,Herbicidal rating,Velvetleaf [7]; 1.12 kg/ha,0 (0-24)
same,Herbicidal rating,Velvetleaf [7]; 5.6 kg/ha,0 (0-24)
same,Herbicidal rating,Panicum; 0.056 kg/ha,0 (0-24)
same,Herbicidal rating,Panicum; 0.28 kg/ha,0 (0-24)
same,Herbicidal rating,Panicum; 1.12 kg/ha,0 (0-24)
same,Herbicidal rating,Panicum; 5.6 kg/ha,2 (50-74)
same,Herbicidal rating,Sorghum; 0.056 kg/ha,0 (0-24)
same,Herbicidal rating,Sorghum; 0.28 kg/ha,0 (0-24)
same,Herbicidal rating,Sorghum; 1.12 kg/ha,0 (0-24)
same,Herbicidal rating,Sorghum; 5.6 kg/ha,0 (0-24)
same,Herbicidal rating,Sugarbeet; 0.056 kg/ha,0 (0-24)
same,Herbicidal rating,Sugarbeet; 0.28 kg/ha,0 (0-24)
same,Herbicidal rating,Sugarbeet; 1.12 kg/ha,0 (0-24)
same,Herbicidal rating,Sugarbeet; 5.6 kg/ha,0 (0-24)
same,Herbicidal rating,Soybean; 0.056 kg/ha,0 (0-24)
same,Herbicidal rating,Soybean; 0.28 kg/ha,0 (0-24)
same,Herbicidal rating,Soybean; 1.12 kg/ha,0 (0-24)
same,Herbicidal rating,Soybean; 5.6 kg/ha,0 (0-24)
same,Herbicidal rating,Rice; 0.056 kg/ha,0 (0-24)
same,Herbicidal rating,Rice; 0.28 kg/ha,0 (0-24)
same,Herbicidal rating,Rice; 1.12 kg/ha,0 (0-24)
same,Herbicidal rating,Rice; 5.6 kg/ha,3 (75-100)
same,Herbicidal rating,Lambsquarters [8]; 5.6 kg/ha,0 (0-24)
same,Herbicidal rating,Lambsquarters [8]; 11.2 kg/ha,0 (0-24)
same,Herbicidal rating,Downy Brome [9]; 5.6 kg/ha,3 (75-100)
same,Herbicidal rating,Downy Brome [9]; 11.2 kg/ha,3 (75-100)
same,Herbicidal rating,Canada Thistle; 5.6 kg/ha,0 (0-24)
same,Herbicidal rating,Canada Thistle; 11.2 kg/ha,0 (0-24)
same,Herbicidal rating,Quackgrass; 5.6 kg/ha,3 (75-100)
same,Herbicidal rating,Quackgrass; 11.2 kg/ha,0 (0-24)
same,Herbicidal rating,Barnyardgrass [10]; 5.6 kg/ha,3 (75-100)
same,Herbicidal rating,Barnyardgrass [10]; 11.2 kg/ha,3 (75-100)
same,Herbicidal rating,Morningglory [11]; 5.6 kg/ha,3 (75-100)
same,Herbicidal rating,Morningglory [11]; 11.2 kg/ha,1 (25-49)
same,Herbicidal rating,Cocklebur [12]; 5.6 kg/ha,0 (0-24)
same,Herbicidal rating,Cocklebur [12]; 11.2 kg/ha,0 (0-24)
same,Herbicidal rating,Yellow Nutsedge; 5.6 kg/ha,1 (25-49)
same,Herbicidal rating,Yellow Nutsedge; 11.2 kg/ha,1 (25-49)
same,Herbicidal rating,Smartweed [13]; 5.6 kg/ha,0 (0-24)
same,Herbicidal rating,Smartweed [13]; 11.2 kg/ha,0 (0-24)
same,Herbicidal rating,Velvetleaf [14]; 5.6 kg/ha,0 (0-24)
same,Herbicidal rating,Velvetleaf [14]; 11.2 kg/ha,0 (0-24)
same,Herbicidal rating,Johnsongrass; 5.6 kg/ha,0 (0-24)
same,Herbicidal rating,Johnsongrass; 11.2 kg/ha,0 (0-24)
